According to PubChem BioAssay (NCI):
Values joined by “and” are separate entries in the source; they are usually repeats but may differ in a detail not shown here. Equal values may be shown once.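 Compound exposure: 48 hours, 5 concentrations, 96-well plates. GI50 marks 50% less growth. TGI: total growth inhibition.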

Experiments:
Test in all cases: growth of human tumour cells (NCI), 48 h
[1] = test system: SF-539 CNS
[2] = test system: RXF 393 renal
[3] = test system: MOLT-4 leukemia
[4] = test system: IGROV1 ovarian
[5] = test system: CCRF-CEM leukemia
[6] = test system: NCI-H460 lung
[7] = test system: SNB-19 CNS
[8] = test system: NCI-H226 lung
[9] = test system: SK-OV-3 ovarian
[10] = test system: HS 578T breast

Row | SMILES | TGI [1] | TGI [2] | TGI [3] | TGI [4] | TGI [5] | TGI [6] | TGI [7] | TGI [8] | TGI [9] | GI50 [9] | GI50 [1] | GI50 [2] | GI50 [4] | GI50 [6] | GI50 [7] | GI50 [10] | TGI [10] | GI50 [3] | GI50 [5] | GI50 [8]
1 | O=C1NC2(CCCCC2)C2CCCCC(O)C12 (centres undefined) | > 100 µM | > 100 µM | > 100 µM | > 100 µM | > 100 µM | > 100 µM | > 100 µM | > 100 µM |  |  |  |  |  |  |  |  |  |  |  | 
2 | COc1cccc(NC(=O)CC(=O)n2nc(C)c(N=Nc3ccccc3)c2C)c1 | > 100 µM |  | > 100 µM | > 100 µM |  |  | > 100 µM | > 100 µM | > 100 µM |  |  |  |  |  |  |  |  |  |  | 
3 | COc1ccc(NC(=O)c2cc(OC)cc(OC)c2)cc1 | > 70.3 µM | 55.9 µM | > 100 µM | > 100 µM | > 100 µM | > 100 µM | > 100 µM | > 100 µM | > 84.8 µM |  |  |  |  |  |  |  |  |  |  | 
4 | CC1=C(C#N)C23C(=O)c4ccccc4C(O)=C2C(=O)C=CC3(O)N1Cc1ccccc1 (centres undefined) | > 100 µM | > 100 µM |  | 72.4 µM |  | > 100 µM | > 100 µM |  | > 100 µM | > 100 µM | 48.2 µM | 26 µM | 23.9 µM | 30.3 µM | 40.1 µM | 26.2 µM | > 100 µM |  |  | 
5 | CN(CC(=O)O)S(=O)(=O)c1ccc2ccccc2c1 | > 100 µM | > 100 µM | > 100 µM | > 100 µM | > 100 µM | > 100 µM | > 100 µM |  | > 100 µM |  |  |  |  |  |  |  |  |  |  | 
6 | CC1(C)COC(c2ccc(C(F)(F)F)cc2C(O)c2ccc3ccccc3c2)=N1 (centres undefined) | > 100 µM | > 10 µM and 44.3 µM | > 100 µM | > 100 µM | > 100 µM | > 10 µM | > 100 µM | > 100 µM | > 100 µM | > 100 µM |  | > 10 µM | > 100 µM |  | > 10 µM |  |  | > 100 µM | > 100 µM | > 10 µM
7 | CCOC(=O)C1=C(C)CC2C(=O)OC(=O)C2C1(C)C (centres undefined) | > 100 µM | > 100 µM | > 100 µM | > 100 µM | > 100 µM | > 100 µM | > 100 µM | > 100 µM | > 100 µM |  |  |  |  |  |  |  |  |  |  | 
8 | CC1=C(C(=O)Nc2ccccc2C)C(c2ccco2)C(C(=O)Nc2ccccc2C)=C(C)N1C | > 100 µM | > 100 µM | > 100 µM | > 100 µM | > 100 µM | > 100 µM | > 100 µM | > 100 µM | > 100 µM |  |  |  |  |  |  |  |  |  |  | 
9 | CCOC(=O)c1ncn2c1[nH]c(=S)c1ccccc12 | > 100 µM | > 100 µM | > 100 µM | > 100 µM | > 100 µM | > 100 µM | > 100 µM | > 100 µM | > 100 µM |  |  |  |  |  |  |  |  |  |  | 
10 | COc1ccc(/C=C\c2cc(OC)c3c(c2)OCO3)c(O)c1O | 4.57 µM | 11.7 µM | 47.5 µM | 20.9 µM | 14.3 µM | 22.2 µM | 23.6 µM | 45.9 µM | > 77 µM |  |  |  |  |  |  |  |  |  |  | 
11 | COc1ccccc1NC(=O)CC(=O)n1nc(C)c(N=Nc2ccccc2C(=O)O)c1C | > 100 µM |  | > 100 µM | > 100 µM | > 100 µM | > 100 µM | > 100 µM |  | > 100 µM |  |  |  |  |  |  |  |  |  |  | 
12 | COc1ccc(-c2cc(=O)c3ccc(O)cc3o2)c(OC)c1OC | > 100 µM | 91.8 µM |  | > 100 µM | > 100 µM |  | > 100 µM | > 100 µM | > 100 µM |  |  |  |  |  |  |  |  |  |  | 
13 | COc1ccc2c(c1)C(=O)/C(=C/c1ccc(OCC(=O)Nc3nccs3)cc1)O2 | 0.361 µM |  | > 100 µM | 0.036 µM |  | 34.4 µM | > 65.7 µM | 34.8 µM | > 95.4 µM | 17.4 µM | 0.184 µM |  | 0.0169 µM | 15.5 µM | 20.4 µM | 9.23 µM | > 63.8 µM | 2.09 µM | 0.183 µM | 12.8 µM
14 | O=C(/C=C/c1ccccc1Cl)c1ccc(Cl)c(Cl)c1 | 33.1 µM | 26 µM | 61.4 µM | 25 µM | 81.8 µM | > 100 µM | 29.9 µM | > 100 µM | 51.3 µM |  |  |  |  |  |  |  |  |  |  | 
15 | CC(=O)OC1COC(n2c(=S)n(-c3ccc(C)cc3)c(=O)c3ccccc32)C(OC(C)=O)C1OC(C)=O (centres undefined) | > 100 µM | > 100 µM | > 100 µM | > 100 µM |  | > 100 µM | > 100 µM | > 100 µM | > 100 µM |  |  |  |  |  |  |  |  |  |  | 
16 | COc1ccc2nc3cc(Cl)ccc3c(Sc3ccccc3[N+](=O)[O-])c2c1 | > 100 µM | 93.2 µM | > 100 µM | > 100 µM | > 100 µM | > 100 µM | > 100 µM | 67.8 µM | > 100 µM |  |  |  |  |  |  |  |  |  |  | 
17 | NS(=O)(=O)c1ccccc1C(=O)N/N=C(\c1nc2ccc([N+](=O)[O-])cc2[nH]c1=O)C(O)c1ccc([N+](=O)[O-])cc1 (centres undefined) | > 100 µM | > 100 µM | > 100 µM | > 100 µM | > 100 µM | > 100 µM | > 100 µM | > 100 µM | > 100 µM |  |  |  |  |  |  |  |  |  |  | 
18 | CC1CN1P1(N2CC2C)=NP(N2CC2C)(N2CC2C)=NP(N2CC2C)(N2CC2C)=N1 (centres undefined) | > 50 µM | > 50 µM | > 50 µM | > 50 µM | > 50 µM | > 50 µM | > 50 µM | > 50 µM | > 50 µM |  |  |  |  |  |  |  |  |  |  | 
19 | O=C(O)C(Cc1ccccc1)N1C(=O)N/C(=C\c2ccc(F)cc2)C1=O (centres undefined) | > 100 µM | > 100 µM | > 100 µM | > 100 µM | > 100 µM | > 100 µM |  | > 100 µM | > 100 µM |  |  |  |  |  |  |  |  |  |  | 
20 | O=c1n(CC2CO2)c(=O)n(CC2CO2)n1CC1CO1 (centres undefined) | > 54.3 µM |  | > 100 µM | 41.1 µM | > 80.2 µM | 30.8 µM | > 100 µM | > 100 µM | > 80.2 µM | 8.37 µM | 4.89 µM |  | 13.2 µM | 0.416 µM | 14.2 µM | > 100 µM | > 100 µM | 4.46 µM | 3.27 µM | 40.6 µM
21 | O=C1/C(=C/c2ccc([N+](=O)[O-])cc2)COc2ccc(O)c(O)c21 | 3.33 µM |  | > 100 µM | 3.55 µM |  | 3.84 µM | 3.1 µM | 45.8 µM | 9.62 µM | 2.98 µM | 1.7 µM |  | 1.25 µM | 1.74 µM | 1.56 µM | 1.94 µM | 4.75 µM | 1.29 µM |  | 11 µM
